Earlier results in US20090291140A1, “TREATMENT OF DY[…] TRANSDERMAL ADMINISTRATION OF NONSTEROIDAL ANTI-INFLAMMATORY DRUGS” (priority 2008, published 2009).

Target: T1, 5-lipoxygenase (Homo sapiens, UniProt P09917)
T1 sequence (P09917 1-674): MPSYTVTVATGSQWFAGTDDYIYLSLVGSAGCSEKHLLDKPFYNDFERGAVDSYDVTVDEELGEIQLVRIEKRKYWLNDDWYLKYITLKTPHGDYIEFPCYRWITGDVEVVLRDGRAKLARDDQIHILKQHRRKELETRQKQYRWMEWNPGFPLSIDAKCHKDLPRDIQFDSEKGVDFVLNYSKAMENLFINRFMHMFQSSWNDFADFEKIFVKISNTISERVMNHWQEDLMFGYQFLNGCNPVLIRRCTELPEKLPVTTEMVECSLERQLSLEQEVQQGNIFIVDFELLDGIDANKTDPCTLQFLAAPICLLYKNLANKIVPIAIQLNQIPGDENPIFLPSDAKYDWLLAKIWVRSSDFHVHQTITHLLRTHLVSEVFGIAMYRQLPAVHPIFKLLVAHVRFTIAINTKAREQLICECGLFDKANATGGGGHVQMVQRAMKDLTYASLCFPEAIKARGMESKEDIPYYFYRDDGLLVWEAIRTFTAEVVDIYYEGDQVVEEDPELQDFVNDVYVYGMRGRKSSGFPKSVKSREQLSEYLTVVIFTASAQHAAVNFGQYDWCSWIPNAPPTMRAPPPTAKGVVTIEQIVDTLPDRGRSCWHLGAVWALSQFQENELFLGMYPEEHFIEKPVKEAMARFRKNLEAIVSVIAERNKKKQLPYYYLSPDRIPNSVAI
Details: in-vitro studies

inhibition of the activity of 5-lipoxygenase: inhibit the activity of 5-lipoxygenase
Compound: Cc1ccc(Cl)c(Nc2ccccc2C(=O)O)c1Cl [meclofenamate]
